From ChEMBL document CHEMBL1201862, “PubChem BioAssay data set” (2004) come the findings set out here.

The structures appear in SMILES notation. Activity calls are given as the source filed them.

The nature of experiment [1]: inhibitors of intracellular T. cruzi replication, confirmation, NIH3T3 host cells, beta-gal luminescence (AID 2044).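 Note: intracellular parasites grown in NIH/3T3 mouse fibroblasts as host cells; luminescent beta-galactosidase reporter signal from transgenic T. cruzi replicating inside host cells; inhibitors lower the luminescence signal.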 In kind it is functional, cell-based.
A short description of experiment [2]: cytotoxicity toward NIH3T3 fibroblasts, dose response, counter-screen, cell-based, ATP luminescence, mouse fibroblasts (AID 2010).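 Note: cells exposed to compound for about 90 hours before reading.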 The format is functional. A general note: A counterscreen serves to expose hits that act by an unwanted route or on another target.
Another experiment concerns the target Cytochrome P450 2C19 (Homo sapiens, UniProt P33261). As to the kind of experiment: Cytochrome panel assay with activity outcomes. Panel member name: p450-cyp2c19 Compounds with AC50 equal or less than 10 uM are considered active. To be noted: read-out: AC50. In kind it is functional.
For another experiment, the system named is Streptococcus. Briefly: Group A Streptococcus viability loss, dose response, counter-screen for streptokinase expression inhibitor project, luminescence, BacTiterGlo (AID 1915).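 Note: potency for reduction of bacterial viability or growth.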 In kind it is functional, organism-based.
Experiment [3] concerns Streptococcus sp. 'group A'. Briefly: growth inhibition of control SK(-) GAS strain, dose response, counter-screen for streptokinase expression inhibitor project, luminescence, kanamycin, BacTiterGlo, confirmation (AID 1900). The format is functional, organism-based.

Sequence of Cytochrome P450 2C19 (P33261 whole entry): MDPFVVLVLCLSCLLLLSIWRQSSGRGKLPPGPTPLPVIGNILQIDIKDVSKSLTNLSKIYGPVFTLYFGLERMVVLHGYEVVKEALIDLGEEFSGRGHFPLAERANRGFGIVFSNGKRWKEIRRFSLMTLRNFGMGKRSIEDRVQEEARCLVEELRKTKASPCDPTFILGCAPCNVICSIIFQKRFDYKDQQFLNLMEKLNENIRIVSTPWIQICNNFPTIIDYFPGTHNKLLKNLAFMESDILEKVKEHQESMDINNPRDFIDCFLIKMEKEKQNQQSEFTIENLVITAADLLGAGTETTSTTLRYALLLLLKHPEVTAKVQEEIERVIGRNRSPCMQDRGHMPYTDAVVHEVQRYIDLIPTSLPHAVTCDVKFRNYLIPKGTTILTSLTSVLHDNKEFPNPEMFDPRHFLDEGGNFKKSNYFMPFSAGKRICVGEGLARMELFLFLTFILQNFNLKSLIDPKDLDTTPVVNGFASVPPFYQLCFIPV

What is called EC50 is the midpoint of the concentration-response curve. Consider `COc1ccc(C(C(=O)NC2CCCC2)N(C(=O)c2snc(-c3ccc(F)cc3)c2N)c2ccc(OC)cc2)cc1` (stereo not given), for which the EC50 in experiment [1] was 1.59 µM (active); in experiment [2] it was > 60 µM (not active).
By AC50 is commonly meant the concentration at which the activity in the assay is half-maximal. With `COC(=O)c1sccc1NC(=O)c1cc(-c2ccc(C)cc2C)nc2ccccc12`, the AC50 at Cytochrome P450 2C19 is 3.55 µM (inconclusive).
Consider `COc1ccc(C(=N)NOC(=O)c2ccc3c(c2)OCO3)cc1OC`, for which the figures for the 50% effective concentration (EC50) in experiment [1] and in experiment [2] were 2.5 µM (active) and 27 µM (active), respectively.
For `CC(Nc1nc(-c2ccncc2)nc2ccccc12)c1ccccc1` (stereo not given) the same measures were 0.596 µM (active) and 4.4 µM (active).
For `O=C(NCCCN1CCOCC1)c1ccc([N+](=O)[O-])cc1[N+](=O)[O-]` the same measures were 0.582 µM (active) and > 30 µM (not active).
For `COc1ccc(SCCc2ccncc2)cc1`, the EC50 in experiment [1] is 1.1 µM (active); in experiment [2] it was > 60 µM (not active).
The like results for `Cc1c(Cl)cccc1N=C(S)N(Cc1cccnc1)Cc1ccccc1Cl` were, in that order, 0.516 µM (active) and > 60 µM (not active).
For `Cc1cccc2c1NC(C)CC2C` (stereo not given) the same measures were 4.83 µM (active) and > 30 µM (not active).
For `Cc1noc(C)c1-c1cc(Nc2ccccc2)ncn1`, on Cytochrome P450 2C19, the half-maximal activity concentration (AC50) is 20 µM (inconclusive).
On the same count and under the same terms, under `COc1cc2c(c(O)c1OC)C(=O)C(OC)CCC2` (stereo not given) stands 6.31 µM (inconclusive).
Consider `O=C(Nc1cccc(-c2nc3ncccc3o2)c1)c1ccco1`, for which the 50% effective concentration (EC50) was 0.249 µM (active) in experiment [1] and > 60 µM (not active) in experiment [2].
In the case of `COC(=O)C1=C(Nc2ccc(C)cc2)C=C(C)C(C(=O)OC)C1c1cccc(OC)c1` (stereo not given), the EC50 in experiment [1] is 2.26 µM (active); in experiment [2], 6.59 µM (active).
For `CN1CCC(N(C)S(=O)(=O)c2ccc(C(C)(C)C)cc2)CC1` the same measures were 0.249 µM (active) and 35.5 µM (active).
Take `COc1ccccc1N(CC(=O)N/N=C(\C)c1ccccc1O)S(=O)(=O)c1ccc(C)cc1`: the 50% effective concentration (EC50) is 4.7 µM (active) in experiment [1] and 5.18 µM (active) in experiment [2].
Consider `O=c1c(-c2ccccc2)nc2cnc(N3CCNCC3)nc2n1C1CC1`, for which the AC50 at Cytochrome P450 2C19 was 39.8 µM (inconclusive).
In the case of `C[C@H]1[C@H](C)CC[C@]2(C(=O)O)CC[C@]3(C)C(=CC[C@@H]4[C@@]5(C)C[C@@H](O)[C@H](O)C(C)(C)[C@@H]5CC[C@]43C)[C@H]12` [COROSOLIC ACID], the EC50 in the experiment on Streptococcus is 2.79 µM (active); in experiment [3] it was 2.92 µM (active).
For `CC(=O)O[C@@]12CO[C@@H]1C[C@H](O)[C@@]1(C)C(=O)[C@H](O)C3=C(C)[C@@H](OC(=O)[C@H](O)[C@@H](NC(=O)OC(C)(C)C)c4ccccc4)C[C@](O)([C@@H](OC(=O)c4ccccc4)[C@H]21)C3(C)C`, the half-maximal effective concentration (EC50) in experiment [1] was < 0.1 µM (active).
For `N#Cc1cccc(-c2nc(NCCN3CCOCC3)c3ccccc3n2)c1`, the AC50 at Cytochrome P450 2C19 is 15.8 µM (inconclusive).
With `Cc1ccc(OCC(O)CNCc2ccc(F)cc2)cc1` (stereo not given), the concentration for a half-maximal effect (EC50) in experiment [1] is 0.321 µM (active); in experiment [2] it was > 60 µM (not active).
Consider `CN1CCN(/N=C/c2cccc(Cl)c2Cl)CC1`, for which the concentration giving a half-maximal response (EC50) was 0.321 µM (active) in experiment [1] and > 60 µM (not active) in experiment [2].
As for `CCC1CCCCN1S(=O)(=O)c1ccc(C(=O)Nc2nnc(C3CC3)o2)cc1` (stereo not given), the concentration giving a half-maximal response (EC50) in the experiment with Streptococcus is 7.56 µM (active); in experiment [3] it was 4.34 µM (active).
With `O=C(Cc1cccs1)N/N=C/c1ccco1`, the EC50 in the experiment with Streptococcus is 2.18 µM (active); in experiment [3], 2.88 µM (active).
For `CCCN(CCC)S(=O)(=O)c1ccc(C(=O)Nc2nnc(COC)o2)cc1` the same measures were 4.59 µM (active) and 5.99 µM (active).
